# Reference: PubChem BioAssay (NCI)
# Values joined by “and” are separate entries in the source; they are usually repeats but may differ in a detail not shown here. Equal entries are not always repeated.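 48-hour exposure; five concentrations; linearly interpolated endpoints. Here, GI50 denotes the concentration required for 50% inhibition of growth. TGI denotes the concentration required for complete inhibition of growth.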
# Tests used:
# Experiment in all cases: growth of human tumour cells (NCI), 48 h
# A498 renal = system: A498 renal
# CAKI-1 renal = system: CAKI-1 renal
# HCT-116 colon = system: HCT-116 colon
# HL-60(TB) leukemia = system: HL-60(TB) leukemia
# IGROV1 ovarian = system: IGROV1 ovarian
# K-562 leukemia = system: K-562 leukemia
# KM12 colon = system: KM12 colon
# MALME-3M melanoma = system: MALME-3M melanoma
# MCF7 breast = system: MCF7 breast
# MDA-MB-435 = system: MDA-MB-435
# NCI-H23 lung = system: NCI-H23 lung
# SF-539 CNS = system: SF-539 CNS
# SK-MEL-5 melanoma = system: SK-MEL-5 melanoma
# SK-OV-3 ovarian = system: SK-OV-3 ovarian
# SNB-75 CNS = system: SNB-75 CNS
# SR leukemia = system: SR leukemia
# T-47D breast = system: T-47D breast
# UACC-257 melanoma = system: UACC-257 melanoma
# UO-31 renal = system: UO-31 renal
Compound,TGI (A498 renal) [µM],TGI (CAKI-1 renal) [µM],TGI (HCT-116 colon) [µM],TGI (HL-60(TB) leukemia) [µM],TGI (IGROV1 ovarian) [µM],TGI (K-562 leukemia) [µM],TGI (KM12 colon) [µM],TGI (MALME-3M melanoma) [µM],TGI (MCF7 breast) [µM],TGI (MDA-MB-435) [µM],TGI (NCI-H23 lung) [µM],TGI (SF-539 CNS) [µM],TGI (SK-MEL-5 melanoma) [µM],TGI (SK-OV-3 ovarian) [µM],TGI (SNB-75 CNS) [µM],TGI (SR leukemia) [µM],TGI (T-47D breast) [µM],TGI (UACC-257 melanoma) [µM],TGI (UO-31 renal) [µM],GI50 (SR leukemia)
Oc1cccc2cc(Br)cnc12,> 85,> 100,> 42.7,4,51.5,16.1,> 100,> 100,> 100,> 100,> 72.8,57.3,48.1,> 100,> 83.2,> 52,> 25.7,27.3,> 76.1,
CCN(CC)/[N+]([O-])=N/OCOC(C)=O,> 100,> 100,> 100,> 100,> 100,> 100,> 100,> 100,> 100,> 100,> 100,> 100,> 100,> 100,> 100,> 100,> 100,> 100,> 100,
CCOC(=O)c1nc2ccccc2nc1Oc1cc(OC)c(OC)c(OC)c1,> 100,> 100,> 100,> 100,> 100,,> 100,> 100,> 100,> 100,> 100,> 100,> 100,,> 100,> 100,> 100,> 100,> 100,
CC1(C)C2CC3C4CC5(Nc6ccccc6C5N41)[C@]3(C)CC2=O (stereo partly specified),> 50,> 50,> 50,> 50,> 50,> 50,> 50,> 50,> 50,> 50,> 50,> 50,> 50,,> 50,> 50,33.3,> 50,> 50,
CN(C)c1ccc(-c2ccc(N(C)C)c3n[se]nc23)c2n[se]nc12,> 100,> 100,> 100,> 100,> 100,> 100,> 100,> 100,> 100,> 100,> 100,> 100,> 100,> 100,> 100,> 100,> 100,> 100,> 100,
O=c1c2cc(Cl)ccc2[nH]c2cc(O)cc(O)c12,> 10,> 10,> 10,> 10,> 10,> 10,> 10,> 10,> 10,> 10,> 10,> 10,> 10,> 10,> 10,> 10,> 10,> 10,,
COc1ccc(/C=C2/NC(=S)N=C2Cl)cc1,> 100,> 100,> 100,> 100,> 100,> 100,> 100,> 100,> 100,> 100,> 100,> 100,> 100,> 100,> 100,> 100,> 100,> 100,> 100,
C=CC(Br)(CBr)CCC(Br)C(C)(C)Cl (stereo unspecified),9.46,,3.4,2.6,12.8,5.1,3.92,19.2,4.89,5.82,12.9,3.78,23.4,30.1,8.72,3.78,3.95,10.6,3.97,
COc1ccc2c(c1)CCCN2S(=O)(=O)c1ccccc1[N+](=O)[O-],> 78,> 100,88.9,37.1,> 100,> 68.9,> 100,> 86.3,99.3,22,> 100,68.8,62.2,> 77,> 87,> 78.8,> 87.8,> 100,> 94.5,
CN(C)CC1CCCCCCCCCC(CN(C)C)C1=O (stereo unspecified),> 46.2,> 50,> 64.5,> 100,> 55.8,> 38.5,> 39.4,> 65.4,24.3,19.7,> 50.5,> 47,41.2,> 45.6,> 44.9,> 100,53,> 48.1,> 53.3,
CCCCCCOc1ccc(C(=O)N(C)O)cc1,> 100,> 91.2,> 100,33.2,> 100,> 78.8,> 100,57.3,> 100,98.1,65.6,44.6,62.5,> 97.1,> 94.4,39.6,99.4,> 100,60.9,
O=C1c2ccccc2CC12Cc1ccccc1C2,> 100,> 100,> 100,48.4,> 100,> 100,> 100,> 100,> 100,> 100,> 100,> 100,56.1,> 100,90.3,83.5,> 100,54.2,> 100,
O=c1c2cc(I)ccc2nc(SCc2n[nH]c(=S)o2)n1Cc1ccccc1,34.2,22.4,29.4,16.5,35.3,70.8,40.4,34.8,31.7,44.4,34.2,30.3,26.2,62.3,23.1,> 100,45.4,38.1,3.43,
CN1C=Cc2nccc3cc4c(c1c23)OCO4,20.5,5.77,35.2,> 100,> 39.2,> 100,17.6,0.836,> 23.6,12.1,10.3,,4.84,61.6,5.3,10.9,> 27.1,16.9,34.9,
N#Cc1c(O)c(N=Nc2ccc(Cl)cc2)c(=O)n2c1[nH]c1ccccc12,> 100,> 100,> 100,> 100,> 100,> 100,> 100,> 100,> 100,> 100,> 100,> 100,> 100,> 100,> 100,> 100,> 100,> 100,> 100,
O=C(NC(Nc1ccc(F)cc1)(C(F)(F)F)C(F)(F)F)C(C(F)(F)F)C(F)(F)F,> 100,> 100,> 100,15.1,> 51.5,> 100,> 100,> 100,> 100,> 100,> 100,> 85.9,> 100,> 100,> 100,> 95.8,> 100,> 100,> 62.5,
Cc1nc2ccc(NC3OC(CO)C(O)C(O)C3O)cc2c(=O)n1-c1ccccc1 (stereo unspecified),> 100,> 100,> 100,> 100,> 100,> 100,> 100,> 100,> 100,> 100,> 100,,> 100,,> 100,> 100,> 100,> 100,> 100,11.1 µM and > 100 µM
O=C1NC(=O)/C(=C/c2ccc(S(=O)(=O)N/N=C\C(O)C(O)C(O)C(O)CO)cc2)N1 (stereo unspecified),> 100,> 100,> 100,> 100,> 100,> 100,> 100,> 100,> 100,> 100,> 100,,> 100,> 100,> 100,> 100,> 100,> 100,> 100,
COC(=O)c1c[nH]c2c1-c1cc(C(=O)OCc3ccccc3)n(S(=O)(=O)c3ccc(C)cc3)c1C(=O)C2=O,3.16,2.65,0.607,> 100,0.955,> 100,0.89,0.222,0.379,0.135,0.32,0.471,0.262,3.1,0.389,3.51,2.47,0.311,1.38,
CC(=O)c1cccc(NC(=O)C(=O)C(c2cnc3ccc([N+](=O)[O-])cc3n2)[N+](=O)[O-])c1 (stereo unspecified),> 100,> 100,> 100,> 100,> 100,> 100,> 100,> 100,> 100,> 100,> 100,> 100,,> 100,> 100,> 100,> 100,> 100,> 100,
